The results in this text go back to US20210261553A1, “FUSED TETRAZOLES AS LRRK2 INHIBITORS” (E-SCAPE Bio, Inc., priority 2018, published 2021).

Assay [1] deals with T1, Recombinant wild type LRRK2 protein (Homo sapiens, UniProt Q5S007).
T1 construct: purchased Life Technologies PR8604B
As to the kind of experiment: LRRK2 kinase activity assay (LanthaScreen TR-FRET), wild type. It counts as biochemical. The conditions noted are these: 400 nM LRRKtide, 25 μM ATP, 60 min at room temperature; read-out: LRRK2 WT IC50. Here is the method: (§1) LRRK2 kinase activity was measured using a LanthaScreen™ Kinase Activity Assay from ThermoFisher Scientific. Recombinant wild type or G2019S-LRRK2 protein (Life Technologies, PR8604B or PV4881, respectively), was incubated with a fluorescein-labeled peptide substrate called LRRKtide that is based upon ezrin/radixin/moesin (ERM) (Life Technologies, PV4901) in the presence of ATP and serially diluted compound. After an incubation period of 1 hr, the phosphotransferase activity was stopped and a terbium-labelled anti-pERM antibody (Life Technologies, PV4899) was added to detect the phosphorylation of LRRKtide by measuring the time resolved-Forster resonant energy transfer (TR-FRET) signal from the terbium label on the antibody to the fluorescein tag on LRRKtide, expressed as the 520 nm/495 nm emission ratio. Compound-dependent inhibition of the TR-FRET signal was used to generate a concentration-response curve for IC50 determination.
(§2) The assay was carried out under the following protocol conditions: 1 mM compound in DMSO was serially diluted 1:3, 11 points in DMSO with a Biomek FX and 0.1 μL of the diluted compound was subsequently stamped into the assay plate (384-well format Lumitrac 200, Greiner, 781075) with an Echo Labcyte such that the final compound concentration in the assay was 10 μM to […]. Subsequently, 5 μL of 2× kinase solution (2.9 nM final concentration) was added to the assay plate in assay buffer composed of 50 mM Tris pH 8.5 (Sigma, T6791), 5 mM MgCl2 (Fluka, 63020), 1 mM EGTA (Sigma, E3889), 0.01% BRU-35 (Sigma, P1254) and 2 mM DTT. The reaction was started by addition of 2×ATP/LRRKtide solution in assay buffer such that the final concentration was 400 nM LRRKtide and 25 μM ATP. After 60 min incubation at room temperature, the reaction was stopped by addition of […] containing a final concentration of 2 nM anti-pERM antibody and […]. After a 30 min incubation at RT, the TR-FRET signal was measured on a Wallac 2104 EnVision® multilabel reader at an excitation wavelength of 340 nm and reading emission at 520 nm and 495 nm. The ratio of the 520 nm and 495 nm emission was used to analyze the data.

The target in assay [2] is T2, Recombinant G2019S-LRRK2 protein (Homo sapiens, UniProt Q5S007, G2019S).
T2 construct: purchased Life Technologies PV4881
T2 sequence (Q5S007 970-2527 G2019S limits assumed): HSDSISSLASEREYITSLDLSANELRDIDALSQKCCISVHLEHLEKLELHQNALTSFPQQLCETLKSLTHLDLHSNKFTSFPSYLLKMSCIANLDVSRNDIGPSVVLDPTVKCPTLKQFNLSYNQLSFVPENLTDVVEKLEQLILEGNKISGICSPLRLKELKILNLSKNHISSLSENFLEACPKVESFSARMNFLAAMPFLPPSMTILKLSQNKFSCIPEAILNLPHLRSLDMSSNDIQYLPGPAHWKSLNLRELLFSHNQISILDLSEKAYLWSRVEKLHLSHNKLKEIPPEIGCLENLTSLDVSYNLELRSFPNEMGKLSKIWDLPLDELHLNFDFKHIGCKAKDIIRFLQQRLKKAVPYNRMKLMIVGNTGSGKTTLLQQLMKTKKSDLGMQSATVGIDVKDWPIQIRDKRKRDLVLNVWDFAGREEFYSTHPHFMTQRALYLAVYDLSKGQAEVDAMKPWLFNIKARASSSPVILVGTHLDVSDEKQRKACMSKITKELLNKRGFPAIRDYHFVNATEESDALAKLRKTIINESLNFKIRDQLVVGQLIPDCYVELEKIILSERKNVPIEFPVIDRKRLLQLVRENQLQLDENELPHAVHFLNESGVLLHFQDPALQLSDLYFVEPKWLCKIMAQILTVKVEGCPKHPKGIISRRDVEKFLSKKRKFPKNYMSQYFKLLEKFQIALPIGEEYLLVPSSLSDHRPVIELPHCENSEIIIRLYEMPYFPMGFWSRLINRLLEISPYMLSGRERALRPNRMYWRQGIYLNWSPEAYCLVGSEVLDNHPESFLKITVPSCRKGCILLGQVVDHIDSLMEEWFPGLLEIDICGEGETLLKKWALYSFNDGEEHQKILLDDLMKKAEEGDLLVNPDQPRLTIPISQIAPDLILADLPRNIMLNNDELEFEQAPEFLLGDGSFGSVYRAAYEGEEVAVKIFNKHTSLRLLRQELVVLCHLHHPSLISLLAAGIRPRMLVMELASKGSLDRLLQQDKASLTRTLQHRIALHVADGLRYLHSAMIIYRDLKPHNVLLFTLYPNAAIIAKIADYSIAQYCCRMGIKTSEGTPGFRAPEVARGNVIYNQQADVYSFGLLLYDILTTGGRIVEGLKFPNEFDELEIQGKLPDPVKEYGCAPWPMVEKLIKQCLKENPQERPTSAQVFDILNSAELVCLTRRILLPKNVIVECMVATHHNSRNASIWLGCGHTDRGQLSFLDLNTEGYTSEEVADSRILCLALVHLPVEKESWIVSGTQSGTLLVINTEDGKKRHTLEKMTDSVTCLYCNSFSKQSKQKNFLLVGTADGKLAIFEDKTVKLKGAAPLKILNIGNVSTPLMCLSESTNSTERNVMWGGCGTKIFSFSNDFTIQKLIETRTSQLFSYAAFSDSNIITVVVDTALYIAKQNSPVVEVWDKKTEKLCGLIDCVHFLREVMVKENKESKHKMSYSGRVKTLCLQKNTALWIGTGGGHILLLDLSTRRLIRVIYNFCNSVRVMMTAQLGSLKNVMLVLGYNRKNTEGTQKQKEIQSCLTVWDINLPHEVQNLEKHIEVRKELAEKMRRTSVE
As to the kind of experiment: LRRK2 kinase activity assay (LanthaScreen TR-FRET), G2019S mutant. It counts as biochemical. The conditions noted are these: 400 nM LRRKtide, 25 μM ATP, 60 min at room temperature. Here is the method: as §1, §2

A value given as a limit tells only on which side of the number the result lay.

T1 sequence (Q5S007 whole entry): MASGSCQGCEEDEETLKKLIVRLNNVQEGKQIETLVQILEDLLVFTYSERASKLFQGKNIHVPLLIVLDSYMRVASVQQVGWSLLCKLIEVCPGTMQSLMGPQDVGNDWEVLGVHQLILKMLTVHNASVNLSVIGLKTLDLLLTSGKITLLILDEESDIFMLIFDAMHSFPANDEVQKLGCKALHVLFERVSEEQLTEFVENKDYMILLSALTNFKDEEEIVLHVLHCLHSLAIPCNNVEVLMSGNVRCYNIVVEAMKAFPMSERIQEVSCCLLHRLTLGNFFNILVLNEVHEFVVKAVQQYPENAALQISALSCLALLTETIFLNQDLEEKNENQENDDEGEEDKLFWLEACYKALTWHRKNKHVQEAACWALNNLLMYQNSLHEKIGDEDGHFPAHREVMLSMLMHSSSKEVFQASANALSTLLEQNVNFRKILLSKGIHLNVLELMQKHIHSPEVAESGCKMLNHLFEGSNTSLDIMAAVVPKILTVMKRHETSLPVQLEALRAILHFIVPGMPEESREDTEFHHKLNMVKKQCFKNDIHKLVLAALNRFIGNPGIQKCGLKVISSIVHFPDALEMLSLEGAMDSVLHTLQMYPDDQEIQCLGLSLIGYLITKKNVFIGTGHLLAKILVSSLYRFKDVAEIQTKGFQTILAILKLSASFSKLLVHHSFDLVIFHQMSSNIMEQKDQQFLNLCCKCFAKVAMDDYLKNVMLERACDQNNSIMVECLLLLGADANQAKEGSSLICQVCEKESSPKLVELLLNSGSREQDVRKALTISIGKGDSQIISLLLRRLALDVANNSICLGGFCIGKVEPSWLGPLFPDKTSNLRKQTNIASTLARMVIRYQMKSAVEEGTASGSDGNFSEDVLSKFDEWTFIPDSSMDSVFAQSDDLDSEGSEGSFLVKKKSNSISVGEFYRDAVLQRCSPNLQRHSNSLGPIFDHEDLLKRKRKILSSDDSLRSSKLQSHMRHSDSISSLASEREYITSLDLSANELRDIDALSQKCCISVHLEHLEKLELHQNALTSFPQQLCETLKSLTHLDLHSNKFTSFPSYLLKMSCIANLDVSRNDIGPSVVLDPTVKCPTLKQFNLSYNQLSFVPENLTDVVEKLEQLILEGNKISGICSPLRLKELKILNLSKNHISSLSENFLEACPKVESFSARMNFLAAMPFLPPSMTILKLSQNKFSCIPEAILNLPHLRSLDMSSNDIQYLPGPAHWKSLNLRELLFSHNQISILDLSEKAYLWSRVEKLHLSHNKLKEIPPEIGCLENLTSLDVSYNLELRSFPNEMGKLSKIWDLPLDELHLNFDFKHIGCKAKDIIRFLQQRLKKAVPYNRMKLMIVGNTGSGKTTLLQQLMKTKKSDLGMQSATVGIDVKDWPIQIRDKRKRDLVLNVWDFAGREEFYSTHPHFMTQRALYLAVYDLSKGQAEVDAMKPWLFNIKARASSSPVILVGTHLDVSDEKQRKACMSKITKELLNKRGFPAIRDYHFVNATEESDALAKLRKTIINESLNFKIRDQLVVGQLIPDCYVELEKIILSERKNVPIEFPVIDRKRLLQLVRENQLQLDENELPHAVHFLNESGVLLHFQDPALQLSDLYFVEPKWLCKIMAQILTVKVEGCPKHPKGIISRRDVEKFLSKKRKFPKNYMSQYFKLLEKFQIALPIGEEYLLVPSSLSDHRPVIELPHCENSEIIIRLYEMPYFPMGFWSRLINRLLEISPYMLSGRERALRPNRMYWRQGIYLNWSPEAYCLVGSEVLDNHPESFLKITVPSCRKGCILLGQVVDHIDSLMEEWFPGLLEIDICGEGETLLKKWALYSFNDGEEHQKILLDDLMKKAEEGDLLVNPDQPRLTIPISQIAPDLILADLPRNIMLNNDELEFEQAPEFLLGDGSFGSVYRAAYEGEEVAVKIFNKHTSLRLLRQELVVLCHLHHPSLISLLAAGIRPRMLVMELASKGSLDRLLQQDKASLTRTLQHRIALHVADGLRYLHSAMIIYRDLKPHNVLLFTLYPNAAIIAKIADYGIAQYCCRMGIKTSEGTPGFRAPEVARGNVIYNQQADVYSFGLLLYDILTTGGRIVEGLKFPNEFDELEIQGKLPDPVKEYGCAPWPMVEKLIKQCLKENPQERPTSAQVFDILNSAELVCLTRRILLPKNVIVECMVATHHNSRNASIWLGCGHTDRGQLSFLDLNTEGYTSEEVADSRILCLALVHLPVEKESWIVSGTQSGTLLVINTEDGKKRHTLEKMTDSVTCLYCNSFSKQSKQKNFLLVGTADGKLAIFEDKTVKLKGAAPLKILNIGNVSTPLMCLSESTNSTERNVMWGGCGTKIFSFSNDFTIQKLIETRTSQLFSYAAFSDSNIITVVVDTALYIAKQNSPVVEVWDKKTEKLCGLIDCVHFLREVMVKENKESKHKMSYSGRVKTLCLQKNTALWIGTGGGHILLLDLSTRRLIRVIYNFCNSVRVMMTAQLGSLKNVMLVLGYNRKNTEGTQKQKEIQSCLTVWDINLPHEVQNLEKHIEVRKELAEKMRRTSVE

In the case of `CC1=C(C(=O)Nc2ccc3n[nH]c(Br)c3c2)[C@@H](C)n2nnnc2N1C` [Example 22, (7R)—N-(3-bromo-2H-indazol-5-yl)-4,5,7-trimethyl-4,7-dihydrotetrazolo[1,5-a]pyrimidine-6-carboxamide], the half-inhibitory concentration (IC50) in assay [1] and in assay [2] was at most 0.1 µM throughout.

Turning to `CC1=C(C(=O)Nc2cc3c[nH]nc3cc2N)C(C)n2nnnc2N1C` (centres unmarked) [Example 25, N-(6-amino-2H-indazol-5-yl)-4,5,7-trimethyl-4,7-dihydrotetrazolo[1,5-a]pyrimidine-6-carboxamide], the IC50 in assay [1] and in assay [2] was 1 to 10 µM throughout.

As to `CC1=C(C(=O)Nc2ccc3[nH]ncc3c2)C(C)(C)n2nnnc2N1C` [Example 26, N-(2H-indazol-5-yl)-4,5,7,7-tetramethyl-4,7-dihydrotetrazolo[1,5-a]pyrimidine-6-carboxamide], the IC50 is 1 to 10 µM in assay [1] and at most 0.1 µM in assay [2].

With `CC1=C(C(=O)Nc2ccc3[nH]nc(-c4ccncc4)c3c2)[C@@H](C)n2nnnc2N1C` [Example 27, (R)-4,5,7-trimethyl-N-(3-(pyridin-4-yl)-1H-indazol-5-yl)-4,7-dihydrotetrazolo[1,5-a]pyrimidine-6-carboxamide], the IC50 in assay [1] and in assay [2] was at most 0.1 µM each time.

As to `CC(=O)Nc1[nH]nc2ccc(NC(=O)C3=C(C)N(C)c4nnnn4C3)cc12` [Example 28, N-(3-acetamido-2H-indazol-5-yl)-4,5-dimethyl-4,7-dihydrotetrazolo[1,5-a]pyrimidine-6-carboxamide], the IC50 in assay [1] was above 10 µM; in assay [2], 1 to 10 µM.

Take `CC1=C(C(=O)Nc2ccc3[nH]c(=O)oc3c2)Cn2nnnc2N1C` [Example 30, 4,5-dimethyl-N-(2-oxo-2,3-dihydrobenzo[d]oxazol-6-yl)-4,7-dihydrotetrazolo[1,5-a]pyrimidine-6-carboxamide]: the IC50 was above 10 µM in assay [1] and 1 to 10 µM in assay [2].

With `CC1=C(C(=O)Nc2ccc3[nH]c(=O)[nH]c3c2)Cn2nnnc2N1C` [Example 31, 4,5-dimethyl-N-(2-oxo-2,3-dihydro-1H-benzo[d]imidazol-5-yl)-4,7-dihydrotetrazolo[1,5-a]pyrimidine-6-carboxamide], the figures for the IC50 in assay [1] and in assay [2] were 1 to 10 µM and 0.1 to 1 µM, respectively.

For `CC1=C(C(=O)Nc2ccc3c(N)nccc3c2)[C@@H](C)n2nnnc2N1C` [Example 42, (R)—N-(1-Aminoisoquinolin-6-yl)-4,5,7-trimethyl-4,7-dihydrotetrazolo[1,5-a]pyrimidine-6-carboxamide], the IC50 in assay [1] is 0.1 to 1 µM; in assay [2], at most 0.1 µM.

Regarding `CC1=C(C(=O)Nc2ccc3[nH]c(=O)n(C)c3c2)[C@@H](C)n2nnnc2N1C` [Example 47, (R)-4,5,7-Trimethyl-N-(3-methyl-2-oxo-2,3-dihydro-1H-benzo[d]imidazol-5-yl)-4,7-dihydrotetrazolo[1,5-a]pyrimidine-6-carboxamide], the values for the IC50 in assay [1] and in assay [2] were 1 to 10 µM and at most 0.1 µM, respectively.

Consider `CC1=C(C(=O)Nc2ccc3c(c2)C(C)(C)NC3=O)[C@@H](C)n2nnnc2N1C` [Example 49, (R)—N-(3,3-Dimethyl-1-oxoisoindolin-5-yl)-4,5,7-trimethyl-4,7-dihydrotetrazolo[1,5-a]pyrimidine-6-carboxamide], for which the IC50 in assay [1] and in assay [2] was above 10 µM throughout.

Regarding `CC1=C(C(=O)Nc2ccc3n[nH]c(NC(=O)Cc4ccc(N(C)C)cc4)c3c2)Cn2nnnc2N1C` [Example 52, N-(3-(2-(4-(Dimethylamino)phenyl)acetamido)-2H-indazol-5-yl)-4,5-dimethyl-4,7-dihydrotetrazolo[1,5-a]pyrimidine-6-carboxamide], the figures for the IC50 in assay [1] and in assay [2] were 1 to 10 µM and 0.1 to 1 µM, respectively.

For `CC1=C(C(=O)Nc2ccc3[nH]nc(C)c3c2)C(C)(C)n2nnnc2N1C` [Example 60, 4,5,7,7-Tetramethyl-N-(3-methyl-2H-indazol-5-yl)-4,7-dihydrotetrazolo[1,5-a]pyrimidine-6-carboxamide], the values for the IC50 in assay [1] and in assay [2] were 0.1 to 1 µM and at most 0.1 µM, respectively.

Turning to `COC(=O)c1c(NC(=O)C2=C(C)N(C)c3nnnn3C2)ccc2n[nH]cc12` [Example 61, Methyl 5-(4,5-dimethyl-4,7-dihydrotetrazolo[1,5-a]pyrimidine-6-carboxamido)-2H-indazole-4-carboxylate], the IC50 in assay [1] and in assay [2] was above 10 µM throughout.
